# Test results from BindingDB's records for doi:10.1021/acs.jmedchem.7b00875 (University of Florida, 2017).
# Biological target: Neuronal acetylcholine receptor subunit alpha-7 (Homo sapiens, UniProt P36544)
# Test: Partial agonist activity at human alpha7 nAChR expressed in Xenopus laevis oocytes assessed as induction of maximum current response administered for 12 secs followed by washout period for 181 secs by voltage clamp technique
# Sequence of Neuronal acetylcholine receptor subunit alpha-7 (P36544 whole entry): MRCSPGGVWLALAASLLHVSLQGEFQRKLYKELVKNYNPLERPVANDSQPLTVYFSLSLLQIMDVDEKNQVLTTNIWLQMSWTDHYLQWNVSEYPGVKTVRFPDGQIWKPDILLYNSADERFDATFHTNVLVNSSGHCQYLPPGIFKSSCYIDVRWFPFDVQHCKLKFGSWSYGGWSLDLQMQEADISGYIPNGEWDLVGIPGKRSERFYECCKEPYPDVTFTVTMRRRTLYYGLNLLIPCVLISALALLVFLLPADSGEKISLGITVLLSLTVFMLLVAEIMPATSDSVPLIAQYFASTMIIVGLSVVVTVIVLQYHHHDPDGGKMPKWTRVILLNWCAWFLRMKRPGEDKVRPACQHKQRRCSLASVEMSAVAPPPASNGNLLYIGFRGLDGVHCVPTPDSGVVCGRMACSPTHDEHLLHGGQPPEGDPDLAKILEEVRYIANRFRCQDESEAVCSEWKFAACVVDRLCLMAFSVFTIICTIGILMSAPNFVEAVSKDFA
smiles,measurement,value
CC[N+]1(CC)CCN(c2ccccc2)CC1,EC50,221 µM
